In ChEMBL document CHEMBL5257089, “Gamabufotalin Induces Apoptosis and Cytoprotective Autophagy through the mTOR Signaling Pathway in Hepatocellular Carcinoma” (J Nat Prod, 2023):
Calls of active or inactive are those of the source. The calls are words filed in the database; no cut-off is given here.

How the values were obtained:
[1] = test system: Huh-7; assay: Induction of autophagic flux in human Huh-7 cells assessed as increase in number of autophagic vesicles at 10 nM by transmission electron microscopic analysis; format: functional, cell-based
[2] = test system: Huh-7; assay: Induction of apoptosis in human Huh-7 cells assessed as viable cells at 10 nM incubated for 48 hrs by Annexin V-FITC/PI staining based flow cytometry method (reference value: 91.5%); format: functional; conditions: read-out: Activity
[3] = test system: Huh-7; assay: Induction of apoptosis in human Huh-7 cells assessed as early apoptotic cells at 10 nM incubated for 48 hrs in presence of gamabufotalin by Annexin V-FITC/PI staining based flow cytometry method (reference value: 2.8%); format: functional
[4] = test system: Huh-7; assay: Induction of apoptosis in human Huh-7 cells assessed as increase in cleaved caspase-3 level at 10 nM incubated for 48 hrs in presence of gamabufotalin by immunoblot analysis; format: functional, cell-based
[5] = test system: Hep 3B2; assay: Induction of autophagic flux in human Hep3B cells harbouring mCherry-egfp-LC3 assessed as reduction in number of yellow puncta ratio at 10 nM incubated for 15 mins in presence of gamabufotalin by laser scanning confocal microscopic analysis; format: functional, cell-based
[6] = test system: Hep 3B2; assay: Induction of apoptosis in human Hep3B cells assessed as late apoptotic cells at 15 nM incubated for 48 hrs by Annexin V-FITC/PI staining based flow cytometry method (reference value: 2.6%); format: functional
[7] = test system: Hep 3B2; assay: Induction of apoptosis in human Hep3B cells assessed as necrotic cells at 15 nM incubated for 48 hrs by Annexin V-FITC/PI staining based flow cytometry method (reference value: 0.2%); format: functional
[8] = test system: Huh-7; assay: Induction of apoptosis in human Huh-7 cells assessed as early apoptotic cells at 20 nM incubated for 48 hrs by Annexin V-FITC/PI staining based flow cytometry method (reference value: 1.7%); format: functional
[9] = test system: Hep 3B2; assay: Induction of apoptosis in human Hep3B cells assessed as fragmented nuclei at […] incubated for 48 hrs by Hoechst33258 staining based fluorescence microscopy; format: functional, cell-based
[10] = test system: Huh-7; assay: Induction of apoptosis in human Huh-7 cells assessed as condensed nuclei at upto 25 uM incubated for 48 hrs by Hoechst33258 staining based fluorescence microscopy; format: functional, cell-based
[11] = test system: Huh-7; assay: Induction of apoptosis in human Huh-7 cells assessed as […] in Bax level at upto 25 nM incubated for 48 hrs by Western blot analysis; format: functional, cell-based
[12] = test system: Hep 3B2; assay: Induction of apoptosis in human Hep3B cells assessed as increase in PARP expression at upto 25 nM incubated for 48 hrs by Western blot analysis; format: functional, cell-based
[13] = test system: Hep 3B2; assay: Induction of apoptosis in human Hep3B cells assessed as viable cells at 25 nM measured after 48 hrs by annexin V-FITC/Propidium iodide staining based flow cytometric analysis (reference value: 95.6%); format: functional; conditions: read-out: Activity
[14] = test system: Hep 3B2; assay: Induction of apoptosis in human Hep3B cells assessed as viable cells at 25 nM measured after 48 hrs in presence of Z-VAD-FMK by annexin V-FITC/Propidium iodide staining based flow cytometric analysis (reference value: 95.6%); format: functional; conditions: read-out: Activity
[15] = test system: Hep 3B2; assay: Induction of apoptosis in human Hep3B cells assessed as late apoptotic cells at 25 nM measured after 48 hrs in presence of Z-VAD-FMK by annexin V-FITC/Propidium iodide staining based flow cytometric analysis (reference value: 2.4%); format: functional
[16] = test system: Huh-7; assay: Induction of apoptosis in human Huh-7 cells assessed as late apoptotic cells at 25 nM measured after 48 hrs in presence of z-VAD-FMK by annexin V-FITC/Propidium iodide staining based flow cytometric analysis (reference value: 6.1%); format: functional
[17] = test system: Huh-7; assay: Induction of autophagic flux in human Huh-7 cells harbouring mCherry-egfp-LC3 assessed as increase in red puncta at 25 nM incubated for 15 mins by laser scanning confocal microscopic analysis; format: functional, cell-based
[18] = test system: Hep 3B2; assay: Induction of apoptosis in human Hep3B cells assessed as early apoptotic cells at 25 nM incubated for 48 hrs in presence of chloroquine by Annexin V-FITC/PI staining based flow cytometry method (reference value: 1.3%); format: functional
[19] = test system: Hep 3B2; assay: Induction of apoptosis in human Hep3B cells assessed as necrotic cells at 25 nM incubated for 48 hrs in presence of chloroquine by Annexin V-FITC/PI staining based flow cytometry method (reference value: 1.2%); format: functional
[20] = test system: Huh-7; assay: Induction of apoptosis in human Huh-7 cells assessed as increase in PARP level at 25 nM incubated for 48 hrs in presence of chloroquine by immunoblot analysis; format: functional, cell-based
[21] = test system: Huh-7; assay: Induction of apoptosis in human Huh-7 cells assessed as increase in caspase-3 level at 25 nM incubated for 48 hrs in presence of chloroquine by immunoblot analysis; format: functional, cell-based
[22] = test system: Huh-7; assay: Induction of apoptosis in human Huh-7 cells assessed as increase in cleaved bax level at 25 nM incubated for 48 hrs in presence of chloroquine by immunoblot analysis; format: functional, cell-based
[23] = test system: Huh-7; assay: Induction of apoptosis in human Huh-7 cells assessed as late apoptotic cells at 25 nM incubated for 48 hrs by Annexin V-FITC/PI staining based flow cytometry method (reference value: 3.8%); format: functional
[24] = test system: Huh-7; assay: Induction of apoptosis in human Huh-7 cells assessed as viable cells at 25 nM incubated for 48 hrs in presence of 4,6-dimorpholino-N-(4-nitrophenyl)-1,3,5-triazin-2-amine by Annexin V-FITC/PI staining based flow cytometry method (reference value: 90.0%); format: functional; conditions: read-out: Activity
[25] = test system: Huh-7; assay: Induction of apoptosis in human Huh-7 cells assessed as upregulation of cleaved PARP level […] incubated for 48 hrs in presence of 4,6-dimorpholino-N-(4-nitrophenyl)-1,3,5-triazin-2-amine by immunoblot analysis; format: functional, cell-based
[26] = test system: Huh-7; assay: Induction of apoptosis in human Huh-7 cells assessed as upregulation of cleaved caspase-3 level […] incubated for 48 hrs in presence of 4,6-dimorpholino-N-(4-nitrophenyl)-1,3,5-triazin-2-amine by immunoblot analysis; format: functional, cell-based
[27] = test system: Hep 3B2; assay: Induction of autophagy in human Hep3B cells harbouring mCherry-egfp-LC3 assessed as reduction in red puncta ratio at 25 nM incubated for 15 mins in presence of 4,6-dimorpholino-N-(4-nitrophenyl)-1,3,5-triazin-2-amine by laser scanning confocal microscopic analysis; format: functional, cell-based
[28] = test system: Huh-7; assay: Induction of autophagy in human Huh-7 cells assessed as reduction in autophagic vesicles at 25 nM incubated for 48 hrs in presence of 4,6-dimorpholino-N-(4-nitrophenyl)-1,3,5-triazin-2-amine by transmission electron microscopy based analysis; format: functional, cell-based
[29] = test system: Hep 3B2; assay: Antitumor activity against human Hep3B cells xenografted in nude mouse model assessed as decrease in tumor volume at 5 mg/kg,ip administered every second day for 3 weeks by vernier caliper method; format: functional, organism-based
[30] = test system: Hep 3B2; assay: Antitumor activity against human Hep3B cells xenografted in nude mouse model assessed as decrease in tumor weight at 5 mg/kg,ip administered every second day for 3 weeks by vernier caliper method; format: functional, organism-based
[31] = test system: Hep 3B2; assay: Antitumor activity against human Hep3B cells xenografted in nude mouse model assessed as upregulation of LC3 II expression at 5 mg/kg,ip administered every second day for 3 weeks by Western blot analysis; format: functional, organism-based
[32] = Toxicity in mouse assessed as effect on serum AST level at 5 mg/kg,ip administered every second day for 3 weeks by H and E staining based microscopic method; format: organism-based; conditions: in vivo, 504 h

CCN(CC)CCCC(C)Nc1ccnc2cc(Cl)ccc12 (configuration not stated) [CHLOROQUINE]
Activity [1]: Active
viability at 0.01 µM [2]: 90.3%
Activity [3]: 12.1%
Activity [4]: Active
Activity [5]: Active

C[C@]12CC[C@H](O)C[C@H]1CC[C@@H]1[C@@H]2[C@H](O)C[C@]2(C)[C@@H](c3ccc(=O)oc3)CC[C@]12O [GAMABUFOTALIN]
Activity [6]: 4.5%
Activity [7]: 0.5%
Activity [8]: 5.5%
Activity [9]: Active
Activity [10]: Active
Activity [11]: Active
Activity [12]: Active
viability at 0.025 µM [13]: 79.6%
viability at 0.025 µM [14]: 91.9%
Activity [15]: 3.5%
Activity [16]: 7.4%
Activity [17]: Active
Activity [18]: 17.9%
Activity [19]: 0.8%
Activity [20]: Active
Activity [21]: Active
Activity [22]: Active
Activity [23]: 7.7%
viability at 0.025 µM [24]: 76.8%
Activity [25]: Active
Activity [26]: Active
Activity [27]: Active
Activity [28]: Active
Activity [29]: Active
Activity [30]: Active
Activity [31]: Active
Activity [32]: Non-Toxic
